Assay results reported in US20060111320A1, “Fungicidal mixtures based on a triazolopyrimidine derivative and azoles” (priority 2002, published 2006).
Where two headings read alike, the source gives them in different places.

Legend:
Type in all cases: in vivo
Pyricularia oryzae = details: individual active compound, rice seedlings Tai-Nong 67
Plasmopara viticola = test: Activity against Peronospora of grapevines caused by Plasmopara viticola; details: individual active compound, potted vines
Procedure: The active compounds, separately or jointly, were prepared as a stock solution with 0.25% by weight of active compound in acetone or DMSO. 1% by weight of the emulsifier Uniperol® EL (wetting agent having emulsifying and dispersing action based on ethoxylated alkylphenols) was added to this solution. The active compounds or the mixtures were diluted with water to the stated concentration.
Evaluation was carried out by determining the infected leaf areas in percent. These percentages were converted into efficacies. The efficacy (W) is calculated as follows using Abbot's formula: W=(1−α/β)·100 • α is the level of fungicidal infection of the treated plants in % and • β is the level of fungicidal infection of the untreated (control) plants in %
An efficacy of 0 means that the infection level of the treated plants corresponds to that of the untreated control plants; an efficacy of 100 means that the treated plants were not infected.
The expected efficacies of the mixtures of active compounds were determined using Colby's formula [R. S. Colby, Weeds 15, 20-22 (1967)] and compared with the observed efficacies. Colby's formula: E=x+y−x·y/100 • E expected efficacy, expressed in % of the untreated control, when using the mixture of the active compounds A and B at the concentrations a and b • x efficacy, expressed in % of the untreated control, when using active compound A at the concentration a • y efficacy, expressed in % of the untreated control, when using active compound B at the concentration b
Leaves of potted vines were sprayed to runoff point with an aqueous suspension having the concentration of active compound stated below. The next day, the undersides of the leaves were inoculated with an aqueous sporangial suspension of Plasmopara viticola. The grapevines were then initially placed into a water-vapor-saturated chamber at 24° C. for 48 hours and then placed in a greenhouse at 20-30° C. for 5 days. After this period of time, the plants were again placed in a humid chamber for 16 hours to promote sporangiophore eruption. The extent to which the infection had developed on the undersides of the leaves was then determined visually.

Cochliobolus miyabeanus = test: Activity against brown spot of rice caused by Cochliobolus miyabeanus, protective treatment; details: Bipolaris oryzae, 144 h, read-out: Efficacy in % of the untreated control

Row | SMILES | Efficacy in % of the untreated control (Pyricularia oryzae; 1 ppm in the spray liquor) | pest or weed control at 4 ppm (Cochliobolus miyabeanus) | pest or weed control at 1 ppm (Cochliobolus miyabeanus) | pest or weed control at 16 ppm (Cochliobolus miyabeanus) | other results
1 | CC1CCN(c2c(-c3c(F)cc(F)cc3F)c(Cl)nc3ncnn23)CC1 [I, 5-chloro-7-(4-methylpiperidin-1-yl)-6-(2,4,6-trifluorophenyl)-[1,2,4]triazolo[1,5-a]pyrimidine] | 11% | 33% | – | – | Efficacy in % of the untreated control (Pyricularia oryzae; 0.25 ppm in the spray liquor): 0%; Efficacy in % of the untreated control (Pyricularia oryzae; 4 ppm in the spray liquor): 33%; Efficacy in % of the untreated control (Plasmopara viticola; 1 ppm in the spray liquor): 0%; Efficacy in % of the untreated control (Plasmopara viticola; 4 ppm in the spray liquor): 38%
2 | Clc1ccc(C2(Cn3cncn3)CC(Br)CO2)c(Cl)c1 (stereo not shown) [II (bromuconazole), 1-[4-bromo-2-(2,4-dichlorophenyl)tetrahydrofuran-2-ylmethyl]-1H-[1,2,4]triazole] | – | 25% | 13% | 50% | –
3 | CC1COC(Cn2cncn2)(c2ccc(Oc3ccc(Cl)cc3)cc2Cl)O1 (stereo not shown) [III (difenoconazole)] | – | 38% | 13% | 63% | –
4 | CC(C)(C)C(O)/C(=C\c1ccc(Cl)cc1Cl)n1cncn1 (stereo not shown) [IV (diniconazole), 1-(2,4-dichlorophenyl)-4,4-dimethyl-2-[1,2,4]triazol-1-ylpent-1-en-3-ol] | – | 0% | 0% | 25% | –
5 | N#CC(Cc1ccc(Cl)cc1)(c1ccccc1)n1cncn1 (stereo not shown) [V (fenbuconazole), 3-(4-chlorophenyl)-2-phenyl-2-[1,2,4]triazol-1-ylpropionitrile] | 0% | – | – | – | –
6 | O=c1c2cc(F)ccc2nc(-n2cncn2)n1-c1ccc(Cl)cc1Cl [VI (fluquinconazole), 3-(2,4-dichlorophenyl)-6-fluoro-2-[1,2,4]-triazol-1-yl-3H-quinazolin-4-one] | – | – | – | – | Efficacy in % of the untreated control (Plasmopara viticola; 1 ppm in the spray liquor): 0%; Efficacy in % of the untreated control (Plasmopara viticola; 4 ppm in the spray liquor): 0%
7 | CCCCC(O)(Cn1cncn1)c1ccc(Cl)cc1Cl (stereo not shown) [VIII (hexaconazole), 2-(2,4-dichlorophenyl)-1-[1,2,4]triazol-1-ylhexan-2-ol] | 11% | – | – | – | –
8 | FC(F)C(F)(F)OCC(Cn1cncn1)c1ccc(Cl)cc1Cl (stereo not shown) [X (tetraconazole), 1-[2-(2,4-dichlorophenyl)-3-(1,1,2,2-tetrafluoroethoxy)propyl]-1H-[1,2,4]triazole] | – | – | – | – | Efficacy in % of the untreated control (Plasmopara viticola; 1 ppm in the spray liquor): 0%; Efficacy in % of the untreated control (Plasmopara viticola; 4 ppm in the spray liquor): 0%
9 | CCCOC/C(=N\c1ccc(Cl)cc1C(F)(F)F)n1cncn1 [XI (triflumizole), (4-chloro-2-trifluormethylphenyl)-(2-propoxy-1-[1,2,4]triazol-1-ylethylidene)amine] | 11% | – | – | – | –
10 | OC(Cn1cncn1)(c1ccc(F)cc1)c1ccccc1F (stereo not shown) [XII (flutriafol), 1-(4-fluorophenyl)-1-(2-fluorophenyl)-2-[1,2,4]triazol-1-ylethanol] | – | 25% | 0% | 63% | –
11 | CCCC(Cn1cncn1)c1ccc(Cl)cc1Cl (stereo not shown) [XIV (penconazole), 1-[2-(2,4-dichlorophenyl)pentyl]-1H-[1,2,4]triazole] | – | 25% | 0% | 63% | –
12 | CC(C)C1CCC(Cc2ccc(Cl)cc2)C1(O)Cn1cncn1 (stereo not shown) [XVI (ipconazole), 2-(4-chlorobenzyl)-5-isopropyl-1-[1,2,4]triazol-1-ylmethylcyclo pentanol] | 11% | – | – | – | –
13 | CC1(C)CC/C(=C\c2ccc(Cl)cc2)C1(O)Cn1cncn1 (stereo not shown) [XVII (triticonazole), 5-(4-chlorobenzylidene)-2,2-dimethyl-1-[1,2,4]triazol-1-ylmethyl cyclopentanol] | – | – | – | – | Efficacy in % of the untreated control (Plasmopara viticola; 1 ppm in the spray liquor): 0%; Efficacy in % of the untreated control (Plasmopara viticola; 4 ppm in the spray liquor): 0%
14 | OC(Cc1ccccc1Cl)(Cn1nc[nH]c1=S)C1(Cl)CC1 (stereo not shown) [XVIII (prothioconazole), 2-[2-(1-chlorocyclopropyl)-3-(2-chlorophenyl)-2-hydroxypropyl]-2,4-dihydro[l,2,4]triazole-3-thione] | – | 50% | 13% | 63% | –
